How the values were obtained:
closed excisional wounds = assay: Collagen organization (plane polarized light) of closed excisional wounds; format: in vivo, Yucatan Miniature Swine
Protocol: Additional tests were performed including elasticity (Table 12); max force (Table 13); tensile strength (strain) (Table 14); energy peak (Table 15); rete-ridge formation; and collagen organization (plane polarized light) (FIG. 24) of the healed wound sites, described as follows.
Regarding collagen organization, the number of wounds indicating collagen infiltration into the scar were identified by polarized imaging (plane polarized light).

[1] = system: C. acnes (derived from ATCC ® 11827 ™); assay: Bacteriostasis, log reduction; format: cell-based

Row | Structure (SMILES) | number of wounds indicating collagen infiltration into the scar (closed excisional wounds) [wounds] | Average result ([1]; 24 h) | Log Reduction ([1]; 24 h) | Log Value ([1]; 24 h) | Average result ([1]; 72 h) | Log Reduction ([1]; 72 h) | Log Value ([1]; 72 h)
1 | O=c1[nH]c(-c2ccc(-c3ccc(B(O)O)cc3)cc2)nc2c1CSCC2 [Compound 10, (4′-(4-oxo-3,5,7,8-tetrahydro-4H-thiopyrano[4,3-d]pyrimidin-2-yl)-[1,1′-biphenyl]-4-yl)boronic acid] | 7 | – | – | – | – | – | –
2 | COC(=O)NCCOC(C)(C)c1ccc(-c2nc3c(c(=O)[nH]2)CSCC3)cc1 [Compound 18, methyl (2-((2-(4-(4-oxo-3,5,7,8-tetrahydro-4H-thiopyrano[4,3-d]pyrimidin-2-yl)phenyl)propan-2-yl)oxy)ethyl)carbamate] | – | 10.7 × 10^4 | 0.7 | 4.2 | 6.5 × 10^3 | 1.1 | 3.8

— US20260356860A1, “2-SUBSTITUTED 3,4A,5,7,8,8A-HEXAHYDRO-4H-THIOPYRANO[4,3-DJPYRIMIDIN-4-ONES FOR WOUND TREATMENT” (priority 2022, published 2026)
